Experimental data: patent US11104926B1, “Pro-fluorophore compounds and use thereof” (Vanderbilt University, priority 2018, dated 2021)
“Also recorded” adds a separate entry of the source.

How the values were obtained:
[1] = tested on: HEK293 cells stably expressing PLE; assay: Pro-fluorophore activation in PLE-expressing HEK293 cells (kinetic imaging plate reader); assay type: cell-based; details: for rank of fold increase in fluorescence in cells (in words) / Fold Increase in Fluorescence: 10 μM; for rank of fold increase in fluorescence in cells (in words): PLE-expressing vs wild-type HEK293 (Table 2); for Fold Increase in Fluorescence: PLE-expressing HEK293 divided by wild-type HEK293, 5 min after addition, mean (SEM) of 4 replicates
Source text: Cell-based assays. To construct a PLE-expressing HEK293 cell line, a PLE-IRES-mCherry construct was excised from the pCAG-PLE-IRES-mCherry (Addgene plasmid #45766) vector using Not1-HF and Xho1 (Tian et al., Proceedings of the National Academy of Sciences, 2012, 109, 4756-4761). The PLE-IRES-mCherry insert was then cloned into pcDNA3.1/Zeo vector (Thermo Fisher Scientific). The pcDNA3.1/Zeo PLE-IRES-mCherry vector was introduced to HEK293 (ATCC) using FuGENE HD (Promega). PLE-expressing cells were selected for using Zeocin.
(§1) Wild-type HEK293 and PLE-expressing HEK293 cells maintained in α-MEM (Corning) containing 10% vol/vol fetal bovine serum (Thermo-Fisher Scientific) and 1% vol/vol GlutaGro (Corning) (cell culture medium) were seeded with 20,000 cells/well in 20 μL of cell culture medium into amine-coated, clear-bottom, and black-walled 384-well plate (BD Biosciences). Plates were then incubated overnight at 37° C. in a 5% CO2 cell culture incubator. Following overnight incubation, cell culture medium was removed and replaced with 20 μL/well assay buffer. Rhodamine-amide profluorophores dissolved in DMSO at 10 mM were diluted into assay buffer at concentrations ranging from 50 μM-70 nM. Forty μL/well of pro-fluorophore solutions were placed in polypropylene 384-well plates (Greiner). Immediately before the beginning of data acquisition, the assay buffer was removed from the cell-containing plates. The cell-containing and pro-fluorophore containing plates where then immediately loaded into a Panoptic kinetic imaging plate reader. Images were acquired at 1 Hz (excitation 480±20 nm and 540±30 nm) for 30 seconds, then 20 μL/well of the pro-fluorophore solutions were added to the cell-containing plates and imaging continued for an additional 15 minutes.

[2] = tested on: porcine liver esterase (PLE); assay: In vitro activation of rhodamine-amide pro-fluorophores by PLE (kinetic fluorescence plate assay); assay type: biochemical; details: for conversion to the fluorescent Rhodamine 110 by PLE (in words): 10 μM, 2 min, 22° C., 30 nM PLE (FIG. 2B); for Km: Table 1, PLE activation; for quality as PLE substrate (in words): in vitro and in cells, comparison within the library
Method: To investigate the ability of PLE to activate various rhodamine-amide pro-fluorophores, the compounds were dissolved in DMSO to a concentration of 100 mM and serially diluted in DMSO in 10, 3-fold steps. The compounds were then added to the well of a low volume, cyclic olefin copolymer 384-well plate (Labcyte). Forty nL/well of pro-fluorophore solution were transferred to black-walled, clear-bottom, polystyrene 384-well plates (Greiner) using an Echo plate reformatter (Labcyte). Following compound transfer, […] of phosphate-buffered saline (PBS) was added to each well and thoroughly mixed. PLE (Sigma, 46058) dissolved in PBS at a concentration of 60 nM and 40 μL of this solution was added to the wells of a polypropylene 384-well plate (Greiner). Pro-fluorophore-containing and PLE-containing plates were placed in a Panoptic kinetic imaging plate reader (WaveFront Biosciences). Images were acquired at 1 Hz (excitation 480±20 nm and 540±30 nm) for 30 seconds, then 20 μL/well of the PLE solutions were added to the pro-fluorophore-containing plates and imaging continued for an additional 15 minutes. In addition to the pro-fluorophore-containing plates, a plate containing PBS only was imaged as was a plate containing a concentration series of Rhodamine 110.

wild-type HEK293 cells [3] = assay: Pro-fluorophore activation in wild-type HEK293 cells (kinetic imaging plate reader); assay type: cell-based; details: 3 μM (FIG. 3A)
Method: as §1

[4] = tested on: HEK293 cells expressing PLE; assay: Confocal fluorescence microscopy of PLE-expressing HEK293 cells; assay type: cell-based; details: treated 1 h at 22° C. (FIG. 4 panels a-c)
Method: (§2) Microscopy. Confocal images were acquired using a Nikon MR (Nikon Instruments) laser scanning confocal microscope equipped with plan apochromat violet corrected 1.4 numerical aperture (N.A.) oil immersion lens. Hoescht images were obtained using a 405 nm laser and 425-475 nm emission filter. Pro-fluorophore (1c) was imaged using a 488 nm laser and 500-550 nm emission filter. Cells for imaging study were cultured overnight on no. 1 chambered slides (lab-tek II, ThermoFisher) in medium previously described in kinetic imaging assays. Medium was removed and pro-fluorophore was added to the slide chambers in assay buffer containing Hoescht, 1 μg/mL. […]

wild-type HEK293 cells [5] = assay: Confocal fluorescence microscopy of wild-type HEK293 cells; assay type: cell-based; details: treated 1 h at 22° C. (FIG. 4 panels d-f)
Method: as §2

[6] = listed as N,N′-dipropionyl rhodamine

Row | Compound | rank of fold increase in fluorescence in cells (in words) [1] | Fold Increase in Fluorescence [1] | conversion to the fluorescent Rhodamine 110 by PLE (in words) [2] | Km [2] | quality as PLE substrate (in words) [2] | also measured
1 | O=C1OC2(c3ccc(NC(=O)C(F)(F)F)cc3Oc3cc(NC(=O)C(F)(F)F)ccc32)c2ccccc21 [Compound 1a, N,N′ bis-triflouroacetyl rhodamine] | largest fold increase in fluorescence | 5701 (±26.4) | most effective conversion | 2.06 µM | good PLE substrates | rank of fold increase in fluorescence in cells (in words) ([1]; listed as N,N′-ditrifluoroacetyl rhodamine): largest increase in fluorescence; quality as PLE substrate (in words) ([2]; listed as N,N′-ditrifluoroacetyl): better substrates than the others
2 | CC(=O)Nc1ccc2c(c1)Oc1cc(NC(C)=O)ccc1C21OC(=O)c2ccccc21 [Compound 1b, N,N′-bis-acetyl rhodamine] |  | 37 (±0.2) |  |  | less preferred substrate; also recorded: poor substrate | 
3 | CCC(=O)Nc1ccc2c(c1)Oc1cc(NC(=O)CC)ccc1C21OC(=O)c2ccccc21 [Compound 1c, N,N′-bis-propionyl rhodamine] | largest fold increase in fluorescence | 725 (±2.1) | most effective conversion |  | good PLE substrates | fluorescence upon addition to PLE-expressing HEK293 cells (in words) ([1]; 3 μM, 384-well plate (FIG. 3A)): rapid increase in fluorescence; quality as PLE substrate (in words) [2, 6]: better substrates than the others; fluorescence upon addition to wild-type HEK293 cells (in words) (wild-type HEK293 cells [3]): no increase in fluorescence was observed; confocal fluorescence in PLE-expressing HEK293 cells (in words) [4]: bright, predominantly cytoplasmic, fluorescence; confocal fluorescence in PLE-expressing HEK293 cells (in words) [4, 6]: bright, cytoplasmic fluorescence; confocal fluorescence in wild-type HEK293 cells (in words) (wild-type HEK293 cells [5]): no fluorescence was observed
4 | CC(C)C(=O)Nc1ccc2c(c1)Oc1cc(NC(=O)C(C)C)ccc1C21OC(=O)c2ccccc21 [Compound 1d, N,N′-bis-isobutyl rhodamine] |  | 458 (±1.6) |  |  |  | 
5 | CC(C)(C)C(=O)Nc1ccc2c(c1)Oc1cc(NC(=O)C(C)(C)C)ccc1C21OC(=O)c2ccccc21 [Compound 1e, N,N′-bis-pivaloyl rhodamine] |  | 87 (±0.4) |  |  |  | 
6 | O=C(Nc1ccc2c(c1)Oc1cc(NC(=O)c3ccccc3)ccc1C21OC(=O)c2ccccc21)c1ccccc1 [Compound 1f, N,N′-bis-benzoyl rhodamine] |  | 119 (±1.2) |  | 7.45 µM |  | 
